Data taken from patent EP0623599A1 (CIBA-GEIGY AG, priority 1993, dated 1994).
Where two headings read alike, the source gives them in different places.

Experiments:
[1] = Fluorescence change between protonated and deprotonated form of the fluorophore; assay type: physicochemical; conditions: in Tetrahydrofuran, pH set with 1 M HCl or 1,0 M NaOH, fluorophore 10⁻⁷ mol/l
From the text: Die Ergebnisse sind in Tabelle 2 angegeben.

[2] = pKa determination from fluorescence intensity as a function of pH; conditions: for pKa: 30 vol% methanol / 70 vol% phosphate buffer, pH 6
From the text: (§2) Die Fluorophore werden in einem Gemisch aus 30 Vol.-% Methanol und 70 Vol.-% Phosphatpuffer gelöst und verschiedene pH-Werte zwischen 6 und 13 eingestellt. Die Messlösungen werden in eine Küvette gefüllt und die Fluoreszenzintensität mit einem Spektrophotometer gemessen. Die Fluoreszenzintensität wird als Funktion des pH-Wertes aufgetragen und aus dem Wendepunkt der Kurve der pKa-Wert ermittelt. […] Die Konzentration der Fluorophore beträgt jeweils 10⁻⁷ mol/l.

[3] = Optical potassium determination with sensor membrane (decrease of fluorescence intensity); conditions: aqueous KCl, 1 ml/min, PVC membrane with Valinomycin
Method: a) Als Trägermaterial wird vorbehandeltes Glas verwendet. Runde Glasscheiben (Durchmesser 18 mm, Dicke 0,17 mm) werden eine Stunde in eine Lösung von 10 Vol-% Dimethyl-dodecylchlorsilan in Isopropanol getaucht. Danach wäscht man die Glasscheiben nacheinander mit je 200 ml Isopropanol, Ethanol und Methanol und trocknet 1 h bei 110 °C. Die hydrophobisierte Oberfläche weist eine verbesserte Haftung der Membranschicht auf. b) Herstellung der Beschichtungslösung. Die folgenden Bestandteile werden zusammen mit 1,5 ml Tetrahydrofuran in eine 2 ml Flasche gegeben und bis zur Lösung der Komponenten geschüttelt: • 1. 80 mg Polyvinylchlorid (Fluka, 81392) • 2. 160 mg Bis-(2-ethylhexyl)sebacat (Weichmacher) • 3. 5 mg Valinomycin • 4. 1,5 mg Kalium-tetrakis(4-fluorphenyl)borat • 5. 2 mg Fluorophor
c) Herstellung von beschichteten Glasträgern. Die Glasträger werden in der Kammer eines Schleuderbeschichtungsapparats (Optocoat OS 35var, Willer Company, CH-8484 Weisslingen) befestigt. Die Kammer wird mit 10 ml Tetrahydrofuran gespült und 2 min bei 3800 Umdrehungen/Minute rotiert. Danach werden 50 µl der jeweiligen Beschichtungslösung auf den Glasträger pipettiert und der Glasträger noch 10 sec rotiert. Man entfernt den mit einer Membran beschichteten Glasträger und trocknet ihn 10 min an der Luft. d) Spektrale Eigenschaften der Membranen. Die beschichteten Glasträger werden in einer optischen Zelle befestigt, in der die Membran mit der Messflüssigkeit in Berührung steht. Die Membran kann in der optischen Zelle optisch angeregt und die Fluoreszenzstrahlung gemessen werden. Die optische Zelle wird in ein Spektrofluorometer (Pekin-Elmer LS-50) gebracht und das Absorptions- und Emmissionsspektrum gemessen. Ferner wird die relative Fluoreszenzquantenausbeute gemäss der von Calvert und Pitts in Photochemistry, Verlag: John Wiley and Sons Inc., Seiten 799 bis 805 (1966) beschriebenen Methode mit Fluorescein als Standard bestimmt. Die Ergebnisse sind in Tabelle 1 angegeben. Tabelle 1:
(§1) Es wird die gleiche Versuchsanordnung wie in Beispiel B1d verwendet und die Absorptions- sowie Emmissionswellenlängen auf die entsprechenden Maxima der in der Membran eingesetzten Fluorophore eingestellt. Die Membran wird mit einer wässrigen KCl-Lösung definierter Konzentration in Kontakt gebracht, indem man die Lösung mit einer Geschwindigkeit von 1 ml/min durch die Zelle pumpt und die Änderung der Fluoreszenzintensität bestimmt. Vor der Messung und nach jeder Messung wird mit Kaliumionen-freien Pufferlösungen gespült und die Fluoreszenzintensität bestimmt, um die Basislinie festzulegen. Die Erniedrigung der Fluoreszenzintensität in Prozent bei der jeweiligen Kaliumkonzentration für den Fluorophor gemäss Beispiel A5 (Membran B1) sind in der Tabelle 3 angegeben.

[4] = 30% methanol phosphate buffer, pH 6
From the text: as §2

[5] = Optical sodium determination with sensor membrane (decrease of fluorescence intensity); conditions: buffer pH 5, Polyurethan (Tecoflex) membrane with Natrium Ionophor V
Method: as §1, with “angegeben. Tabelle 3:” for “angegeben.”
Es wird wie in Beispiel C1 verfahren und die Natriumionenkonzentration mit einer Membran aus 2 mg Fluorophor gemäss Beispiel A5, 30 mg Natriumionophor (4-Octadecanoyloxymethyl-N,N,N,N-tetracyxlohexyl- 1 ,2-phenylendioxy-diacetamid, Fluka Natrium Ionophor V, Katalog Nr. 71738), 2 mg Kalium-tetrakis(4-chlorphenyl)borat, 75 mg Polyurethan (Tecoflex®), 160 mg Bis-2-ethylhexyl-sebacat als Weichmacher und 1 ml Tetrahydrofuran bestimmt. Der Sensor wird einer Pufferlösung bei pH 5 (0,1 Mol Tris-hydroxymethyl-aminomit-methan und 1M HCl) unterschiedlichen Natriumkonzentrationen ausgesetzt. Die Ergebnisse sind in Tabelle 6 angegeben.

[6] = Optical calcium determination with sensor membrane (decrease of fluorescence intensity); conditions: buffer pH 5, Polyurethan (Tecoflex) membrane with Kalzium Ionophor I
Method: as §1, with “angegeben. Tabelle 3:” for “angegeben.”
Es wird wie in Beispiel C1 verfahren und die Kalziumionenkonzentration mit einer Membran aus 2 mg Fluorophor gemäss Beispiel A5, 30 mg Kalziumionophor ((-)-(R,R)-N,N-[Bis(11-ethoxycarbonyl)undecyl]-N,N-4,5-tetramethyl-3,6-dioxaoctandia mid, Fluka Kalzium Ionophor I, Katalog Nr. 21192), 6 mg Kalium-tetrakis(4-chlorphenyl)borat, 75 mg Polyurethan (Tecoflex®), 160 mg Bis-2-ethylhexyl-sebacat als Weichmacher und 1 ml Tetrahydrofuran bestimmt. Der Sensor wird einer Pufferlösung bei pH 5 (0,02M NaOH und Essigsäure) unterschiedlichen Kalziumkonzentrationen ausgesetzt. Die Ergebnisse sind in Tabelle 7 angegeben.

Row | SMILES | Änderung Fluoreszenzintensität [1] | pKa [2] | % Erniedrigung Fluoreszenzintensität ([3]; Kalium-Konzentration 0,1 mM) | % Erniedrigung Fluoreszenzintensität ([3]; Kalium-Konzentration 0,5 mM) | % Erniedrigung Fluoreszenzintensität ([3]; Kalium-Konzentration 1,0 mM) | % Erniedrigung Fluoreszenzintensität ([3]; Kalium-Konzentration 5,0 mM) | % Erniedrigung Fluoreszenzintensität ([3]; Kalium-Konzentration 10,0 mM) | % Erniedrigung Fluoreszenzintensität ([3]; Kalium-Konzentration 100,0 mM) | also measured
1 | CCCCCCC(=O)Nc1ccc2cc3ccc(NC(=O)CCCCCC)cc3nc2c1 | 24 Prozent | 10 | – | – | – | – | – | – | –
2 | CCCCCCCCCCCCCCCCCCCCNc1ccc2cc3ccc(NCCCCCCCCCCCCCCCCCCCC)cc3nc2c1 [Beispiel A2, 3,6-Bis(n-eicosylamino)-acridin] | 41 Prozent | 11.1 | – | – | – | – | – | – | –
3 | CCCCCCCCCCCCCCCCCC(=O)N=c1ccc2c(-c3ccccc3C(=O)O)c3ccc(N(CC)CC)cc3oc-2c1 [Beispiel A7] | 15 Prozent | – | – | – | – | – | – | – | pKa-Wert ([2]; 30 Vol.-% Methanol / 70 Vol.-% Phosphatpuffer, pH 6 to 13, fluorophore 10⁻⁷ mol/l, inflection point of curve): 10,1
4 | CCCCCCCCNc1ccc2cc3ccc(NCCCCCCCC)cc3nc2c1 [Beispiel A1, 3,6-Bis(n-octylamino)-acridin] | 44 Prozent | 10 | 5% | 15% | 25% | 39% | 45% | 75% | –
5 | CCCCCCCCN=c1ccc2c(-c3ccccc3C(=O)O)c3ccc(NCCCCCCCC)cc3oc-2c1 [Beispiel A6] | 20 Prozent | – | 36% | 41% | 43% | 48% | 52% | – | pKa-Wert [4]: 12,0
6 | CCCCCCCCCCCCCCCCCCCCN=c1ccc2c(-c3ccccc3C(=O)O)c3ccc(N(CC)CC)cc3oc-2c1 [Beispiel A5] | 33 Prozent | 10.3 | 20% | 35% | 45% | 53% | 60% | 68% | % Erniedrigung Fluoreszenzintensität ([5]; Natrium-Konzentration 0 mM): 0%; % Erniedrigung Fluoreszenzintensität ([5]; Natrium-Konzentration 3 mM): 15%; % Erniedrigung Fluoreszenzintensität ([5]; Natrium-Konzentration 15 mM): 41%; % Erniedrigung Fluoreszenzintensität ([5]; Natrium-Konzentration 30 mM): 54%; % Erniedrigung Fluoreszenzintensität ([5]; Natrium-Konzentration 90 mM): 72%; % Erniedrigung Fluoreszenzintensität ([5]; Natrium-Konzentration 150 mM): 79%; % Erniedrigung Fluoreszenzintensität ([5]; Natrium-Konzentration 210 mM): 83%; % Erniedrigung Fluoreszenzintensität ([5]; Natrium-Konzentration 300 mM): 86%; % Erniedrigung Fluoreszenzintensität ([3]; Kalium-Konzentration 0,01 mM): 5%; % Erniedrigung Fluoreszenzintensität ([6]; Kalzium-Konzentration 0,1 mM): 26,5%; % Erniedrigung Fluoreszenzintensität ([6]; Kalzium-Konzentration 0,5 mM): 43,1%; % Erniedrigung Fluoreszenzintensität ([6]; Kalzium-Konzentration 0 mM): 0%; % Erniedrigung Fluoreszenzintensität ([6]; Kalzium-Konzentration 1,0 mM): 50,6%; % Erniedrigung Fluoreszenzintensität ([6]; Kalzium-Konzentration 3,0 mM): 61,0%; % Erniedrigung Fluoreszenzintensität ([6]; Kalzium-Konzentration 5,0 mM): 65,8%; % Erniedrigung Fluoreszenzintensität ([6]; Kalzium-Konzentration 7,0 mM): 68,1%; % Erniedrigung Fluoreszenzintensität ([6]; Kalzium-Konzentration 10,0 mM): 71,0%
